The values that follow are results of earlier work, collected in patent US20200317616A1, “Crystalline Form of Betrixaban Maleate” (Apotex Inc., priority 2019, published 2020).

Counter-ions that a name gives are not always drawn.

For series [1] the following is noted: labelling of BEVYXXA.
The conditions of series [2]: anhydrous form, CDER review NDA 208383.
For series [3] the following is noted: anhydrous form, CDER review NDA 208383. The source holds these as a separate data set.

In the case of `COc1ccc(NC(=O)c2ccc(C(=N)N(C)C)cc2)c(C(=O)Nc2ccc(Cl)cn2)c1` [Betrixaban, N-(5-chloropyridin-2-yl)-2-[4-(N,N-dimethylcarbamimidoyl)-benzoylamino]-5-methoxybenzamide], the oral bioavailability in series [1] is 34%.
For the molecule `COc1ccc(NC(=O)c2ccc(C(=N)N(C)C)cc2)c(C(=O)Nc2ccc(Cl)cn2)c1` [Betrixaban maleate], the solubility entry in series [2] is listed as “high”. Further, the permeability result in series [3] is “low”.
